Target: T1, Recombinant human CES1 (CES1b/CES1A1) (Homo sapiens, UniProt P23141)
T1 sequence (P23141 18-567): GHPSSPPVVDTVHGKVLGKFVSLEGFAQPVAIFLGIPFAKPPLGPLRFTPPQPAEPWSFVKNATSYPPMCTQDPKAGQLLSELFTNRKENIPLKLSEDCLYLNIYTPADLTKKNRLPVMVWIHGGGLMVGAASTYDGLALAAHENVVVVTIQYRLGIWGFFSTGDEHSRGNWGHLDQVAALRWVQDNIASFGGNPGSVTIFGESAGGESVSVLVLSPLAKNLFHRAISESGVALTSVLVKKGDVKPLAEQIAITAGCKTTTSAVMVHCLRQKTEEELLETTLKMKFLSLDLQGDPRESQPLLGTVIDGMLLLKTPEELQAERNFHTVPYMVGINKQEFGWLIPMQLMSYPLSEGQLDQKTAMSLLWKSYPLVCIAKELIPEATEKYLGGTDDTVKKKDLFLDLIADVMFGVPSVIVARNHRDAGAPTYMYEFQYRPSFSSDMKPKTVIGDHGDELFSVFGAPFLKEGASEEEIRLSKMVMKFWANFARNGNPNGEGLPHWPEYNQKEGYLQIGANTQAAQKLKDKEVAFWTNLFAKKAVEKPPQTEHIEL
Experiment: In vitro inhibition of recombinant CES1
Format: biochemical
Conditions: for IC50 relative to diltiazem: recombinant CES1, fold higher than IC50 of diltiazem

Row | SMILES | IC50 relative to diltiazem | IC50
1 | C[C@H](CCC(=O)NCCS(=O)(=O)O)[C@H]1CC[C@H]2[C@@H]3[C@H](O)C[C@@H]4C[C@H](O)CC[C@]4(C)[C@H]3CC[C@]12C [Taurochenodeoxycholic acid] | more than fourfold higher | –
2 | C[C@H](CCC(=O)O)[C@H]1CC[C@H]2[C@@H]3[C@H](O)C[C@@H]4C[C@H](O)CC[C@]4(C)[C@H]3CC[C@]12C [Chenodeoxycholic acid] | – | 13.5 µM
3 | C[C@H](CCC(=O)NCC(=O)O)[C@H]1CC[C@H]2[C@@H]3[C@H](O)C[C@@H]4C[C@H](O)CC[C@]4(C)[C@H]3CC[C@]12C [Glycochenodeoxycholic acid] | ~10 fold | –
4 | C[C@H](CCC(=O)NCCS(=O)(=O)O)[C@H]1CC[C@H]2[C@@H]3[C@H](O)C[C@@H]4C[C@H](O)CC[C@]4(C)[C@H]3C[C@H](O)[C@]12C [Taurocholic acid] | – | 19.5 µM
